Reference: ChEMBL document CHEMBL1156800, “Probing Torpedo californica acetylcholinesterase catalytic gorge with two novel bis-functional galanthamine derivatives” (J Med Chem, 2010)
pIC50: −log10 of the molar value.

Target: Acetylcholinesterase (Homo sapiens, UniProt P22303)
Experiment: Inhibition of human recombinant AChE

Sequence of Acetylcholinesterase (P22303 whole entry): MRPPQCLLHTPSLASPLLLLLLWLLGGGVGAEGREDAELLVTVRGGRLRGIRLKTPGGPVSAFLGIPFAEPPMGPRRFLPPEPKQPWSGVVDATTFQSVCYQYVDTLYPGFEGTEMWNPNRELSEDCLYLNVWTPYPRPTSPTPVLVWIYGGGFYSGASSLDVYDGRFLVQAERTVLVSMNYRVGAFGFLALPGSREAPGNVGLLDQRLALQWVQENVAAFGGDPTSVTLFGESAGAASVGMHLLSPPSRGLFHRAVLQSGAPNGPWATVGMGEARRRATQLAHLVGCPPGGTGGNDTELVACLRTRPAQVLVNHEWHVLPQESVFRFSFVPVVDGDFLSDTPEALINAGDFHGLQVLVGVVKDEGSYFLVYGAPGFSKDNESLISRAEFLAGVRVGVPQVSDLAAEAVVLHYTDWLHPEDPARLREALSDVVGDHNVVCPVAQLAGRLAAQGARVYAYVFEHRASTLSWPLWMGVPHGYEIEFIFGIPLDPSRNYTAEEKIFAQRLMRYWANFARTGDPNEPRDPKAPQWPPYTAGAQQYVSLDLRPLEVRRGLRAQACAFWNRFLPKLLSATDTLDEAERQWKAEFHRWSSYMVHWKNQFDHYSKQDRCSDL

## COc1ccc2c3c1O[C@H]1C[C@@H](O)C=C[C@@]31CCN(CCCCCCCCN1C(=O)c3ccccc3S1(=O)=O)C2
  pIC50: 7.30
